Source: US4952598A, “3-phenyl indolinone derivatives, processes for their preparation, medicaments containing them, and their use” (Hoechst Aktiengesellschaft, priority 1985, dated 1990)
Structures can show the parent of a compound that is named as a salt.

Molecular target: calcium channels
Test: 3H-nitrendipine binding (nitrendipine displacement) test
Conditions: 3H-nitrendipine 0.1 nM, rat brain cortex membranes, pH 7.4, 25° C., 60 min
Protocol: Their calcium-antagonistic activity can be shown in the biochemical test model of displacement of tritium-labeled nitrendipine.
This entails membrane preparations which contain isolated calcium channels being loaded with labeled substance.
After incubation with the test substance, the radioactivity which has been released into the supernatant solution is determined. […] The compounds of the formula I are likewise very active in other test models with which a calcium-antagonistic action can be detected, for example the coronary blood flow in the isolated guinea pig heart, or the action potential of the isolated guinea pig papillary muscle.
The test of the activity of substances in the ^3 H-nitrendipine binding test was carried out in a membrane preparation obtained from the cortex of the rat brain and washed several times, the method used essentially being that described by R.J. Gould et al. (Proc. Natl. Acad. Sci. USA 79, 3656 [1982]). The membrane suspension was diluted 1:1500 with TRIS buffer pH 7.4 (50 mM TRIS.HCl, 150 mM NaCl, 1.0 mM CaCl2 and 0.001% by weight, based on TRIS.HCl, NaCl and CaCl2 in solution, of a neutral surface-active substance such as, for example, Genapol^(R)) was incubated in 5 ml portions with ^3 H-nitrendipine (0.1 nM in the test, specific activity 81.3 Ci/mmol) in a shaking water bath at 25° C. for 60 min. The membrane fractions were removed by vacuum filtration through Whatman GF/F glass fiber filters, and the radioactivity was measured in a liquid scintillation counter. The unspecific ^3 H-nitrendipine binding was determined in the presence of 1 μM nifedipine.

Q: For `CC(C)C1(c2ccccc2OCCCCN2CCN(CCCC(c3ccc(F)cc3)c3ccc(F)cc3)CC2)C(=O)N(C)c2ccccc21` (stereo not shown) [Example 5, 3-[2-(4-(4-(4-bis(4-fluorophenyl)butyl)-1-piperazinyl)butoxy)phenyl]-3-isopropyl-1-methylindolin-2-one dihydrochloride], which IC50 is on record?
A: 13 nM

Q: `COc1cc(CN2CCN(CCCCOc3ccccc3C3(C(C)C)C(=O)N(C)c4ccccc43)CC2)cc(OC)c1OC` (stereo not shown) [Example 6, 3-Isopropyl-1-methyl-3-[2-(4-(4-(3,4,5-trimethoxybenzyl)-1-piperazinyl)butoxy)phenyl)indolin-2-one dichydrochloride] was tested. Which IC50 did it give?
A: 44 nM

Q: For `COc1ccc(CCN(C)CCCCOc2ccccc2C2(Cc3ccccc3)C(=O)N(C)c3ccccc32)cc1OC` (stereo not shown) [Example 1, 3-Benzyl-3-[2-(4-(N-(2-(3,4-dimethoxyphenyl)ethyl)-N-methylamino)butoxy)phenyl]-1-methylindolin-2-one hydrochloride], which IC50 is on record?
A: 8000 nM

Q: `COc1ccc(CCN(C)CCCCOc2ccccc2C2(C(C)C)C(=O)N(C)c3ccccc32)cc1OC` (stereo not shown) [Example 3, 3-[2-(4-(N-(2-(3,4-dimethoxyphenyl)ethyl)-N-methylamino)butoxy)-phenyl]-3-isopropyl-1-methylindolin-2-one hydrochloride] was tested. Which IC50 did it give?
A: 22 nM
